Data on ten compounds can be found in ChEMBL document CHEMBL1201862, “PubChem BioAssay data set” (2004).

Holding throughout (assay): DTP human tumour cell line panel, 48 h
The subject of test [1] is A549.
In test [2] the test system is BT-549.
In test [3] the test system is COLO 205.
For test [4], the system named is DU-145.
In test [5] the test system is HCT-116.
Test [6] has as its system HCT-15.
The subject of test [7] is HL-60.
Test [8] concerns KM12.
In test [9] the test system is LOX IMVI.
The subject of test [10] is MDA-MB-231.
For test [11], the system named is NCI-H23.
For test [12], the system named is NCI-H460.
Test [13] has as its system NCI/ADR-RES.
Test [14] concerns OVCAR-3.
Test [15] has as its system SK-MEL-28.
In test [16] the test system is SNB-19.
In test [17] the test system is T47D.
The subject of test [18] is U-251.
The subject of test [19] is UACC-257.
Test [20] deals with UO-31.

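Results reflect a 48-hour exposure of cells in 96-well plates to compound at five concentrations. Here, GI50 denotes the concentration required for 50% inhibition of growth.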 Calls of active or inactive are those of the source. No stated cut-off is given here; in the data, active = GI50 up to about 1.1 µM and inactive = higher.

The term GI50 denotes the concentration giving 50% growth inhibition. Take `Cc1ccc(-n2cnc(C(=N)C#N)c2N)cc1`: the GI50 in test [1] is > 100 µM (inactive); in test [2], > 100 µM (inactive); in test [3], > 100 µM (inactive); in test [4] it was > 100 µM (inactive); in [5], > 100 µM (inactive); in test [6], above 100 µM. Further, the GI50 in test [7], in test [8], in test [9], in test [10], in test [11] and in test [12] was > 100 µM (inactive) in each case. Moreover, the GI50 in test [13], in test [14], in [15], in [16], in [17] and in test [18] was > 100 µM (inactive) throughout. Moreover, the GI50 in test [19] and in test [20] was > 100 µM (inactive) in each case.

For `O=[N+]([O-])c1ccccc1OCCOc1ccccc1[N+](=O)[O-]`, the GI50 in test [1] is > 100 µM (inactive); in test [2] it was > 100 µM (inactive); in test [3], > 100 µM (inactive); in test [4], > 100 µM (inactive); in [5] it was > 100 µM (inactive); in test [6], above 100 µM. The GI50 in test [7] was > 100 µM (inactive); in test [8], > 100 µM (inactive); in test [9] it was > 100 µM (inactive); in test [10], 96.2 µM (inactive); in test [11], > 100 µM (inactive); in [12], > 100 µM (inactive). The GI50 in test [13], in test [14], in [15], in [16], in test [17] and in test [18] was > 100 µM (inactive) throughout. For the same compound, the GI50 in test [19] and in test [20] was > 100 µM (inactive) throughout.

With `O=[N+]([O-])c1cc2ccc(N(CCO)CCO)nc2nc1N(CCO)CCO`, the GI50 in test [1] is > 100 µM (inactive); in test [2], > 100 µM (inactive); in test [3] it was > 100 µM (inactive); in test [4], > 100 µM (inactive); in test [5], > 100 µM (inactive); in [6], above 100 µM. The GI50 in test [7], in test [8], in [9], in test [10], in [11] and in [12] was > 100 µM (inactive) each time. Also, the GI50 in [13], in test [14], in [15], in [16], in [17] and in [18] was > 100 µM (inactive) in each case. For the same compound, the GI50 in test [19] and in test [20] was > 100 µM (inactive) in each case.

`COc1ccc(C(=O)N(C(=S)OCCOc2ccccc2)c2ccccc2)cc1`: the GI50 in test [1] is 31.1 µM (inactive); in test [2] it was 49.9 µM (inactive); in test [3], 30.5 µM (inactive); in test [4] it was 37.1 µM (inactive); in [5], 29.2 µM (inactive); in [6] it was 44.2 µM. The GI50 was 20.2 µM (inactive) in test [7]; 31.3 µM (inactive) in test [8]; 52 µM (inactive) in test [9]; 86.1 µM (inactive) in test [10]; 32.4 µM (inactive) in [11]; 34.1 µM (inactive) in test [12]. Moreover, the GI50 was 37.2 µM (inactive) in [13]; 38 µM (inactive) in [14]; > 100 µM (inactive) in [15]; 83.8 µM (inactive) in test [16]; 19.9 µM (inactive) in test [17]; 46.1 µM (inactive) in [18]. The results for the GI50 in test [19] and in test [20] were 34.8 µM (inactive) and 0.0457 µM (active), respectively.

As for `COc1cc(C2SCC(=O)N2c2ccc(NC(C)=O)cc2)cc(OC)c1OC` (stereo not given), the GI50 in test [1] is > 100 µM (inactive); in test [2], 36.6 µM (inactive); in test [3] it was > 100 µM (inactive); in [4], > 100 µM (inactive); in test [5], 69.7 µM (inactive); in test [6], 94.2 µM. Moreover, the GI50 in test [7], in test [8], in [9], in test [10], in test [11] and in test [12] was > 100 µM (inactive) in each case. Also, the GI50 in test [13] was 88.3 µM (inactive); in test [14], > 100 µM (inactive); in [15], > 100 µM (inactive); in test [16], > 100 µM (inactive); in test [17], 16.6 µM (inactive); in test [18] it was > 100 µM (inactive). Also, the GI50 in test [19] and in test [20] was > 100 µM (inactive) in each case.

As for `COC(=O)C1OC(O[C@H]2CC[C@]3(C)[C@H]4CC=C5[C@@H]6CC(C)(C)CC[C@]6(C(=O)OC)[C@H](O)C[C@@]5(C)[C@]4(C)CC[C@H]3C2(C)C)C(O)C(O)C1O` (stereo not given in full), the GI50 in [1] is 4.08 µM (inactive); in [2] it was 15.7 µM (inactive); in test [3], 4.98 µM (inactive); in test [4] it was 10 µM (inactive); in [5], 4.4 µM (inactive); in test [6] it was 10.5 µM. In addition, the GI50 in test [7] is 3.37 µM (inactive); in [8], 1.67 µM (inactive); in [9], 3.18 µM (inactive); in [10], 9.33 µM (inactive); in test [11] it was 6.21 µM (inactive); in test [12] it was 6.49 µM (inactive). In addition, the GI50 in test [13] is 12.2 µM (inactive); in test [14], 10.4 µM (inactive); in test [15], 11.1 µM (inactive); in [16], 13.9 µM (inactive); in test [17], 12.6 µM (inactive); in test [18] it was 11.6 µM (inactive). For the same compound, the figures for the GI50 in [19] and in test [20] were 15.3 µM (inactive) and 14 µM (inactive), respectively.

On to `COC(=O)C1(Cc2ccc3c(c2)CCC3)Cc2ccccc2C1O` (stereo not given), for which the GI50 in test [1] is 20.5 µM (inactive); in [2] it was 18.7 µM (inactive); in test [3], 17.3 µM (inactive); in test [4] it was 39.4 µM (inactive); in test [5] it was 17.4 µM (inactive); in [6] it was 21.5 µM. Besides, the GI50 in test [7] was 37.5 µM (inactive); in test [8] it was 22.6 µM (inactive); in [9], 15.1 µM (inactive); in test [10], 21.3 µM (inactive); in [11], 19.8 µM (inactive); in [12], 18.6 µM (inactive). Besides, the GI50 in test [13] was 18.7 µM (inactive); in test [14], 20.5 µM (inactive); in test [15], 16.9 µM (inactive); in [16], 19.3 µM (inactive); in [17], 22.6 µM (inactive); in test [18], 16.8 µM (inactive). In addition, the GI50 in test [19] was 15 µM (inactive); in [20], 15.7 µM (inactive).

On to `CC(=O)NC1C(OCc2ccccc2)OC(CO)C(O)C1OC(C)C(=O)NC(C(=O)NC(CCC(=O)Nc1ccc2c(c1)CN1C(=O)c3ccccc3C1=N2)C(N)=O)C(C)C` (stereo not given), for which the GI50 in test [1] is > 100 µM (inactive); in [2], > 100 µM (inactive); in test [3] it was > 100 µM (inactive); in [4], > 100 µM (inactive); in test [5], > 100 µM (inactive); in test [6] it was above 100 µM. Moreover, the GI50 in test [7], in test [8], in test [9], in test [10], in [11] and in test [12] was > 100 µM (inactive) throughout. For the same compound, the GI50 in [13], in [14], in test [15], in [16], in [17] and in test [18] was > 100 µM (inactive) throughout. Further, the GI50 in test [19] and in test [20] was > 100 µM (inactive) in each case.

`CN(CC(=O)O)Cc1c(O)c(Cl)cc(Cl)c1Cl`: the GI50 in test [1] is 53.7 µM (inactive); in test [2], 75.5 µM (inactive); in [3], 34.6 µM (inactive); in [4], 34.4 µM (inactive); in [5], 12.5 µM (inactive); in test [6] it was 21.8 µM. Moreover, the GI50 in test [7] was 13.9 µM (inactive); in test [8], 31.2 µM (inactive); in [9] it was 14 µM (inactive); in test [10], 45.2 µM (inactive); in [11], 95.3 µM (inactive); in test [12], 5.13 µM (inactive). In addition, the GI50 in [13] was 26.8 µM (inactive); in test [14], 4.07 µM (inactive); in test [15], 24.5 µM (inactive); in test [16], 48.4 µM (inactive); in test [17], 54.1 µM (inactive); in test [18] it was 17 µM (inactive). Further, the figures for the GI50 in test [19] and in [20] were 19.8 µM (inactive) and 23.2 µM (inactive), respectively.

As to `O=[N+]([O-])C(=C(N1CCCCC1)N1CCCCC1)/C(Cl)=C(\Cl)Br`, the GI50 in test [1] was 32.7 µM (inactive); in test [2], 33.8 µM (inactive); in test [3], 20.3 µM (inactive); in [4], 30.8 µM (inactive); in [5], 14.2 µM (inactive); in [6], 16.4 µM. Further, the GI50 in test [7] is 15.2 µM (inactive); in [8] it was 23.1 µM (inactive); in test [9], 16.1 µM (inactive); in test [10] it was 27.2 µM (inactive); in [11], 18.7 µM (inactive); in test [12], 21 µM (inactive). Also, the GI50 is 27.2 µM (inactive) in [13]; 29.3 µM (inactive) in [14]; 19.5 µM (inactive) in test [15]; 26.4 µM (inactive) in test [16]; 25.2 µM (inactive) in test [17]; 18.7 µM (inactive) in test [18]. Further, the GI50 in test [19] is 23.8 µM (inactive); in test [20], 34.5 µM (inactive).
